# From PubChem BioAssay (NCI)
#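 These data come from cells grown in 96-well plates and exposed to compound for 48 hours at five concentrations. GI50 = concentration required for 50% inhibition of growth. TGI: concentration producing complete growth inhibition.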
# What was measured:
# Assay in all cases: inhibition of tumour cell growth, NCI panel, 48 h
# HCT-15 colon = tested on: HCT-15 colon
# HT29 colon = tested on: HT29 colon
# IGROV1 ovarian = tested on: IGROV1 ovarian
# K-562 leukemia = tested on: K-562 leukemia
# OVCAR-3 ovarian = tested on: OVCAR-3 ovarian
# SF-539 CNS = tested on: SF-539 CNS
# SK-MEL-2 melanoma = tested on: SK-MEL-2 melanoma
# SK-MEL-5 melanoma = tested on: SK-MEL-5 melanoma
# SK-OV-3 ovarian = tested on: SK-OV-3 ovarian
# SF-295 CNS = tested on: SF-295 CNS
SMILES,GI50 (HCT-15 colon) [µM],TGI (HCT-15 colon) [µM],GI50 (HT29 colon) [µM],TGI (HT29 colon) [µM],GI50 (IGROV1 ovarian) [µM],TGI (IGROV1 ovarian) [µM],GI50 (K-562 leukemia) [µM],TGI (K-562 leukemia) [µM],GI50 (OVCAR-3 ovarian) [µM],TGI (OVCAR-3 ovarian) [µM],GI50 (SF-539 CNS) [µM],TGI (SF-539 CNS) [µM],GI50 (SK-MEL-2 melanoma) [µM],TGI (SK-MEL-2 melanoma) [µM],GI50 (SK-MEL-5 melanoma) [µM],TGI (SK-MEL-5 melanoma) [µM],GI50 (SK-OV-3 ovarian) [µM],TGI (SK-OV-3 ovarian) [µM],GI50 (SF-295 CNS) [µM],TGI (SF-295 CNS) [µM]
COc1ccc(/C=C2\CCCC3=C2NC(C)=NC3c2ccc(OC)c(OC)c2)cc1OC (configuration not stated),3.52,> 100,21.7,> 100,50.6,> 100,4.54,> 100,5.47,> 100,27.5,> 100,15.9,> 100,9.43,> 100,19.2,> 100,,
CCCCC[C@H]1C/C=C2/C(=O)C(Cl)=C[C@@H]2C/C=C\CCCC(=O)O[C@@H](CCCCC)C/C=C2/C(=O)C(Cl)=C[C@@H]2C/C=C\CCCC(=O)O1,0.49,1.85,0.46,1.44,0.342,0.958,0.314,2.29,0.268,0.555,0.518,1.97,0.362,0.918,0.325,0.659,0.966,4.18,0.362,0.861
CC(=O)NC(CCCN(Cc1ccccc1)C(=O)N(CCCl)N=O)C(=O)NCc1ccccc1 (configuration not stated),,> 100,,> 100,,> 100,,> 100,,> 100,,20.6,,> 94.8,,> 76.7,,> 100,,> 100
CCc1c[nH]c2ncnc(N3CC[C@@](N)(CNC(=O)c4ccc(F)cc4F)C3)c12,43.6,> 100,62,> 100,20.1,> 94.9,48.3,> 100,69.1,> 100,20.4,> 100,35.5,> 100,32.8,> 100,32,> 100,26.2,> 100
Cc1c2ccncc2c(C)c2c1[nH]c1ccc(OC(C)(C)C)cc12,,,,7.09,,26.8,,4.93,,3.42,,2.93,,3.88,,4.9,,18.8,,4.87
CC1=NN(C(=O)c2ccc(Cl)cc2)C(=O)/C1=C/c1cccc([N+](=O)[O-])c1,,> 100,,> 100,,> 100,,> 100,,> 100,,> 100,,> 100,,> 100,,> 100,,> 100
O=[N+]([O-])c1ccc(CS(=O)Cc2ccccc2)cc1 (configuration not stated),,> 100,,> 100,,> 100,,> 100,,> 100,,> 100,,> 100,,> 100,,> 100,,> 100
C=C[C@]1(C)C=C2C(=O)[C@@]3(O)OC[C@@]4(CCCC(C)(C)C43O)C2(O)C(O)C1 (some centres not stated),3.04,9.21,1.46,> 21.5,1.55,6.36,2.8,> 27.9,2.52,5.9,5.15,15.4,12.4,27.4,14.5,27.8,23,69.6,21.6,> 70.5
Nc1nc(Nc2cccc(F)c2)nc2ccccc12,18.4,47,21.4,39.3,38.7,> 100,24.9,> 100,21.1,49.6,16.8,34.2,25.3,48.8,14.5,28.3,35.3,> 100,17.8,42.7
CCOC(=O)c1c(C)n(Cc2ccc(Cl)cc2Cl)c2c1cc1oc(=O)c(=O)n3c(Cc4ccccc4)nc2c13,3.92,14.8,4.65,17.4,2.11,15.2,3.13,7.18,1.91,4.44,8.44,20.7,11.8,32.6,1.97,3.54,15.3,30.7,2.32,10.9
CC1CC2(CC[C@@H]1O)OCCO2 (some centres not stated),,> 100,,> 100,,> 100,,> 100,,> 100,,> 100,,> 100,,> 100,,> 100,,> 100
COC(=O)[C@@H]1CCCN1C(=O)[C@@H]1CCCN1C(=O)[C@@H](Cc1c[nH]c2ccccc12)NC(=S)Nc1cc(C(F)(F)F)cc(C(F)(F)F)c1,4.87,> 100,3.68,23.3,3.91,48.7,3.98,> 100,3.8,52.2,7.72,67.4,2.49,5.11,2.13,5.52,47.2,> 100,6.48,> 100
CCSc1nc(COC(=O)NC)c(COC(=O)NC)n1C,,> 100,,> 100,,> 93.1,,> 68.1,,> 100,,> 100,,> 100,,> 100,,> 95,,> 100
COc1ccc2c(c1)C(=O)c1c-2n(CCCN2CCOCC2)c(=O)c2ccccc12,3.64,> 100,2.19,> 45,1.87,> 100,4.47,> 100,2.94,12.2,2.17,5.33,14.5,63.4,1.37,2.68,3.27,12.1,1.35,9.71
CC(CCCOC(c1ccccc1)(c1ccccc1)c1ccccc1)OC(=O)Nc1cc([N+](=O)[O-])cc([N+](=O)[O-])c1 (configuration not stated),,> 100,,> 100,,> 100,,> 100,,> 100,,> 100,,78.9,,44.6,,57.9,,> 100
